Tests used:
[1] = molar heat capacity at constant pressure; details: 101.33 kPa, Liquid, Small sample (50 mg) DSC
[2] = xn = mol fraction of the nth substance listed; details: 101 kPa, Liquid, Small sample (50 mg) DSC
[3] = molar heat capacity at constant pressure; xn = mol fraction of the nth substance listed; details: 101 kPa, Liquid, Small sample (50 mg) DSC

C1CNCCN1 [piperazine]
[1]
Details | molar heat capacity at constant pressure [J/K/mol]
393.2 K | 216.3
398.2 K | 218.7
403.2 K | 220.5
408.2 K | 222.8
413.2 K | 225

C1CNCCN1 [piperazine] + CN(CCO)CCO
Details | excess molar heat capacity, x1 = 0.1 [J/K/mol] | excess molar heat capacity, x1 = 0.2 [J/K/mol] | excess molar heat capacity, x1 = 0.3 [J/K/mol] | excess molar heat capacity, x1 = 0.4 [J/K/mol] | molar heat capacity at constant pressure, x1 = 0.1 [J/K/mol] | molar heat capacity at constant pressure, x1 = 0.2 [J/K/mol] | molar heat capacity at constant pressure, x1 = 0.3 [J/K/mol] | molar heat capacity at constant pressure, x1 = 0.4 [J/K/mol]
[2], 303.2 K | 2.3 | 3.92 | 5.4 | 6.21 | – | – | – | –
[2], 308.2 K | 2.46 | 4.22 | 5.73 | 6.61 | – | – | – | –
[2], 313.2 K | 2.63 | 4.52 | 6.06 | 7.01 | – | – | – | –
[2], 318.2 K | 2.79 | 4.82 | 6.4 | 7.41 | – | – | – | –
[2], 323.2 K | 2.97 | 5.11 | 6.74 | 7.82 | – | – | – | –
[2], 328.2 K | 3.12 | 5.51 | 7.06 | 8.22 | – | – | – | –
[2], 333.2 K | 3.29 | 5.82 | 7.41 | 8.62 | – | – | – | –
[2], 338.2 K | 3.46 | 6.1 | 7.73 | 9.02 | – | – | – | –
[2], 343.2 K | 3.63 | 6.4 | 8.06 | 9.42 | – | – | – | –
[2], 348.2 K | 3.79 | 6.7 | 8.39 | 9.83 | – | – | – | –
[2], 353.2 K | 3.95 | 6.99 | 8.72 | 10.23 | – | – | – | –
[3], 303.2 K | – | – | – | – | 264.4 | 256.6 | 248.7 | 240.1
[3], 308.2 K | – | – | – | – | 267.7 | 260 | 252 | 243.3
[3], 313.2 K | – | – | – | – | 271.1 | 263.3 | 255.2 | 246.6
[3], 318.2 K | – | – | – | – | 274.4 | 266.7 | 258.5 | 249.8
[3], 323.2 K | – | – | – | – | 277.7 | 270 | 261.8 | 253
[3], 328.2 K | – | – | – | – | 281 | 273.5 | 265.1 | 256.3
[3], 333.2 K | – | – | – | – | 284.4 | 276.8 | 268.4 | 259.5
[3], 338.2 K | – | – | – | – | 287.7 | 280.2 | 271.6 | 262.7
[3], 343.2 K | – | – | – | – | 291.1 | 283.5 | 274.9 | 266
[3], 348.2 K | – | – | – | – | 294.4 | 286.9 | 278.2 | 269.2
[3], 353.2 K | – | – | – | – | 297.7 | 290.2 | 281.4 | 272.4

C1CNCCN1 [piperazine] + O
Details | excess molar heat capacity, x1 = 0.05 [J/K/mol] | excess molar heat capacity, x1 = 0.1 [J/K/mol] | excess molar heat capacity, x1 = 0.15 [J/K/mol] | excess molar heat capacity, x1 = 0.2 [J/K/mol] | molar heat capacity at constant pressure, x1 = 0.05 [J/K/mol] | molar heat capacity at constant pressure, x1 = 0.1 [J/K/mol] | molar heat capacity at constant pressure, x1 = 0.15 [J/K/mol] | molar heat capacity at constant pressure, x1 = 0.2 [J/K/mol]
[2], 303.2 K | 2.16 | 3.88 | 5.53 | 7.95 | – | – | – | –
[2], 308.2 K | 2.37 | 4.28 | 6.13 | 8.65 | – | – | – | –
[2], 313.2 K | 2.58 | 4.68 | 6.73 | 9.35 | – | – | – | –
[2], 318.2 K | 2.78 | 5.08 | 7.33 | 10.05 | – | – | – | –
[2], 323.2 K | 2.99 | 5.58 | 7.93 | 10.75 | – | – | – | –
[2], 328.2 K | 3.2 | 5.98 | 8.53 | 11.45 | – | – | – | –
[2], 333.2 K | 3.41 | 6.38 | 9.03 | 12.25 | – | – | – | –
[2], 338.2 K | 3.62 | 6.78 | 9.53 | 12.95 | – | – | – | –
[2], 343.2 K | 3.83 | 7.18 | 10.13 | 13.65 | – | – | – | –
[2], 348.2 K | 4.04 | 7.58 | 10.63 | 14.35 | – | – | – | –
[2], 353.2 K | 4.25 | 7.98 | 11.23 | 15.05 | – | – | – | –
[3], 303.2 K | – | – | – | – | 82.5 | 89.4 | 96.1 | 103.7
[3], 308.2 K | – | – | – | – | 82.8 | 90 | 97 | 104.8
[3], 313.2 K | – | – | – | – | 83.2 | 90.6 | 98 | 105.9
[3], 318.2 K | – | – | – | – | 83.5 | 91.2 | 98.9 | 107.1
[3], 323.2 K | – | – | – | – | 83.8 | 92 | 99.9 | 108.2
[3], 328.2 K | – | – | – | – | 84.2 | 92.6 | 100.8 | 109.4
[3], 333.2 K | – | – | – | – | 84.5 | 93.3 | 101.7 | 110.6
[3], 338.2 K | – | – | – | – | 84.9 | 93.9 | 102.5 | 111.8
[3], 343.2 K | – | – | – | – | 85.3 | 94.6 | 103.5 | 113
[3], 348.2 K | – | – | – | – | 85.6 | 95.2 | 104.4 | 114.1
[3], 353.2 K | – | – | – | – | 86 | 95.9 | 105.3 | 115.3
